Experimental findings from ChEMBL document CHEMBL4043173, “Aminosquaraines as potential photodynamic agents: Synthesis and evaluation of in vitro cytotoxicity” (Bioorg Med Chem Lett, 2017) are described below.

The subject of one data set is MCF7. Description: Photocytotoxicity against human MCF7 cells assessed as growth inhibition preincubated for 24 hrs followed by irradiation with light at 23 to 24 uW/cm'2 for 30 mins measured after 24 hrs by SRB assay. As to conditions: MCF7, light or radiation study. In kind it is functional.
In a further data set the test system is HepG2. Briefly: Photocytotoxicity against human HepG2 cells assessed as growth inhibition preincubated for 24 hrs followed by irradiation with light at 23 to 24 uW/cm'2 for 30 mins measured after 24 hrs by SRB assay. Particulars: HepG2, light or radiation study. Type of data set: functional.
A short description of data set [1]: Dark toxicity against human NCI-H460 cells assessed as growth inhibition after 24 hrs by SRB assay. Type of data set: cell-based.
The nature of data set [2]: Dark toxicity against human MCF7 cells assessed as growth inhibition at 0.1 uM after 24 hrs by SRB assay relative to control. In kind it is cell-based. As to conditions: read-out: GI.
The subject of the next data set is NCI-H460. Description: Photocytotoxicity against human NCI-H460 cells assessed as growth inhibition preincubated for 24 hrs followed by irradiation with light at 23 to 24 uW/cm'2 for 30 mins measured after 24 hrs by SRB assay. In kind it is functional. Particulars: NCI-H460, light or radiation study.
A short description of data set [3]: Photocytotoxicity against porcine PLP2 cells assessed as growth inhibition preincubated for 24 hrs followed by irradiation with light at 23 to 24 uW/cm'2 for 30 mins measured after 24 hrs by SRB assay. Particulars: Sus scrofa.
A short description of data set [4]: Dark toxicity against human HepG2 cells assessed as growth inhibition at 0.1 uM after 24 hrs by SRB assay relative to control. In kind it is cell-based. As to conditions: read-out: GI.
Data set [5] can be described thus: Dark toxicity against porcine PLP2 cells assessed as growth inhibition after 24 hrs by SRB assay. Particulars: Sus scrofa.
Data set [6] can be described thus: Dark toxicity against human HepG2 cells assessed as growth inhibition after 24 hrs by SRB assay. In kind it is cell-based.
Data set [7] can be described thus: Dark toxicity against human MCF7 cells assessed as growth inhibition after 24 hrs by SRB assay. In kind it is cell-based.
A short description of data set [8]: Dark toxicity against human HeLa cells assessed as growth inhibition at 0.1 uM after 24 hrs by SRB assay relative to control. Type of data set: cell-based. Particulars: read-out: GI.
A short description of data set [9]: Dark toxicity against human HeLa cells assessed as growth inhibition after 24 hrs by SRB assay. In kind it is cell-based.
A further data set relates to HeLa. Description: Photocytotoxicity against human HeLa cells assessed as growth inhibition preincubated for 24 hrs followed by irradiation with light at 23 to 24 uW/cm'2 for 30 mins measured after 24 hrs by SRB assay. Type of data set: functional. Particulars: light or radiation study.
The nature of data set [10]: Dark toxicity against porcine PLP2 cells assessed as growth inhibition at 0.1 uM after 24 hrs by SRB assay relative to control. As to conditions: Sus scrofa, read-out: GI.
The nature of data set [11]: Dark toxicity against human NCI-H460 cells assessed as growth inhibition at 0.1 uM after 24 hrs by SRB assay relative to control. In kind it is cell-based. As to conditions: read-out: GI.

Where only a bound is given, the exact number is not on record here.

With `CCN1/C(=C/C2=C(N(C)CCO)C(=C/c3sc4ccccc4[n+]3CC)/C2=O)Sc2ccccc21`, the GI50 in the data set with MCF7 was found to be 239 nM; in the data set with HepG2, 271 nM; in the data set on NCI-H460, 455 nM; in the data set with HeLa it was 273 nM. In addition, the GI50 at 24 h in data set [1] turned out to be 767 nM; in data set [3] it was 471 nM; in [5] it was 717 nM; in [6], 7540 nM; in data set [7] it was 737 nM; in data set [9] it was 2640 nM. Further, the inhibition at 24 h, 0.1 µM in [2], in [4], in data set [8], in data set [10] and in [11] was less than 20% each time.
Consider `CCN1/C(=C/C2=C(N)C(=C/c3sc4ccccc4[n+]3CC)/C2=O)Sc2ccccc21`, for which the 50% growth inhibitory concentration (GI50) with MCF7 worked out at 918 nM; in the data set on HepG2, 665 nM; in the data set on NCI-H460 it was 8350 nM; in the data set with HeLa, 288 nM. The GI50 at 24 h in data set [1] was greater than 10000 nM; in data set [3], 4980 nM; in data set [5], greater than 10000 nM; in data set [6], 4570 nM; in data set [7] it was greater than 10000 nM; in data set [9], greater than 10000 nM. The inhibition at 24 h, 0.1 µM in data set [2], in data set [4], in data set [8], in data set [10] and in [11] was less than 20% throughout.
Consider `CCN1/C(=C/C2=C(N(CCO)CCO)C(=C/c3sc4ccccc4[n+]3CC)/C2=O)Sc2ccccc21`, for which the 50% growth inhibitory concentration (GI50) stood at 257 nM in the data set with MCF7, 722 nM in the data set on HepG2, 404 nM in the data set on NCI-H460 and 88 nM in the data set with HeLa. Moreover, the GI50 at 24 h in data set [1] is 940 nM; in data set [3], 340 nM; in [5], 621 nM; in [6], 4490 nM; in data set [7], 5340 nM; in [9] it was greater than 10000 nM. The inhibition at 24 h, 0.1 µM in data set [2], in data set [4], in data set [8], in data set [10] and in [11] was less than 20% in each case.
In the case of `CCN1/C(=C/C2=C(NC)C(=C/c3sc4ccccc4[n+]3CC)/C2=O)Sc2ccccc21`, the GI50 is 54 nM in the data set with MCF7, 78 nM in the data set on HepG2, 171 nM in the data set on NCI-H460 and 71 nM in the data set with HeLa. Besides, the GI50 at 24 h in [1] was found to be 507 nM; in data set [3], 126 nM; in data set [5] it was 410 nM; in data set [6] it was 7080 nM; in data set [7], 576 nM; in data set [9], 2220 nM. Moreover, the inhibition at 24 h, 0.1 µM in data set [2], in [4], in [8], in [10] and in [11] was less than 20% in each case.
On to `CCN1/C(=C/C2=C(NCCO)C(=C/c3sc4ccccc4[n+]3CC)/C2=O)Sc2ccccc21`, for which the 50% growth inhibitory concentration (GI50) was determined as 224 nM in the data set on MCF7, 110 nM in the data set with HepG2, 440 nM with NCI-H460 and 97 nM in the data set with HeLa. Also, the GI50 at 24 h in data set [1] is 8820 nM; in data set [3], 385 nM; in [5], 3730 nM; in [6], 7830 nM; in data set [7], 7360 nM; in data set [9], greater than 10000 nM. The inhibition at 24 h, 0.1 µM in data set [2], in data set [4], in [8], in data set [10] and in data set [11] was less than 20% throughout.
